# Publication PMC2656996, “Functional cell permeable motifs within medically relevant proteins” (Journal of Biotechnology, 2007)
# Non-standard residues stand in square brackets, D forms with d. Residues, ends and D or L forms follow the SMILES beside them. N(NBD)Gly = O=C(O)CNc1ccc([N+](=O)[O-])c2nonc12
# Key:
# HeLa cells = assay: Internalisation of NBD-labelled peptides, flow cytometry with dithionite quench; format: cell-based, human; conditions: NBD-labelled peptide 10, 40 and 160 μM, 2 h at 37 °C, DMEM 10% FCS, FACS geometric mean fluorescence, dithionite-only background subtracted, average of three independent experiments
# Protocol: (§1) HeLa or RAW 264.7 cells were cultured at 37 °C, 10% CO2, in Dulbecco's modified Eagle's medium (DMEM) (Invitrogen), containing 10% foetal calf serum (FCS, Harlan), 100 U/ml penicillin and 100 μg/ml streptomycin. Quantification of internalisation of NBD-labelled peptides was carried out according to the procedure described by [Drin et al. (2001)]. Briefly, cells were seeded in six-well plates (5 × 10^5 cells/well) and treated with 0–160 μM of peptide for 2 h at 37 °C. Cells were washed twice in PBS, harvested using a solution of Versene (1:500) (Invitrogen) and re-suspended in 0.5 ml (final volume) of ice-cold PBS. Cells were analysed by flow cytometry using a Becton Dickinson FACS Scan instrument and the geometric mean of fluorescence intensity was considered to represent the amount of cell-associated peptide. Following flow cytometry, 5 μl of freshly prepared dithionite stock solution (1 M Na2S2O4 in 1 M Tris–HCl (pH 10)) was added to cells maintained at 4 °C for 5 min and analysed again with flow cytometry to measure residual fluorescence. Fluorescence from cells treated with dithionite only was subtracted from the fluorescence of cell-associated or internalised peptides to infer background values.
# RAW 264.7 cells [1] = assay: Cell viability, CellTiter-Glo Luminescent Assay; format: cell-based, murine; conditions: RAW 264.7, 10, 40 and 160 μM peptide, incubation 2, 4, 8 and 18 h
# Text: CellTiter-Glo Luminescent Assay (Promega) was utilised to determine viability of RAW 264.7 cells following treatment with peptides, according to the manufacturer's instructions.
# RAW 264.7 cells [2] = assay: Internalisation of NBD-labelled peptides, flow cytometry with dithionite quench; format: cell-based, murine; conditions: increasing concentrations of NBD-labelled peptide, 2 h at 37 °C, DMEM 10% FCS, FACS, average of three independent experiments
# Protocol: as §1
"Internalised peptide, mean cell fluorescence after sodium dithionite quencher (HeLa cells)","Internalised peptide, mean cell fluorescence after sodium dithionite quencher (RAW 264.7 cells [2])",Compound,Cellular viability (RAW 264.7 cells [1])
very little fluorescence,–,"C[C@H](NC(=O)[C@H](C)NC(=O)[C@H](CCC(N)=O)NC(=O)[C@H](C)NC(=O)[C@H](C)NC(=O)[C@H](CCCCN)NC(=O)[C@H](CCCCN)NC(=O)[C@H](CCCNC(=N)N)NC(=O)CNc1ccc([N+](=O)[O-])c2nonc12)C(=O)N[C@@H](C)C(=O)N1CCC[C@H]1C(=O)N1CCC[C@H]1C(=O)N[C@@H](CCC(N)=O)C(N)=O [TAT^Ala, reference compound] (H-[N(NBD)Gly]RKKAAQAAAPPQ-NH2)",–
–,–,CC[C@H](C)[C@H](NC(=O)[C@H](C)NC(=O)CNC(=O)CNC(=O)[C@@H]1CCCN1C(=O)[C@@H](NC(=O)[C@H](C)NC(=O)[C@H](CC(=O)O)NC(=O)[C@H](CCCNC(=N)N)NC(=O)[C@H](CC(C)C)NC(=O)[C@H](CCC(N)=O)NC(=O)[C@H](CC(C)C)NC(=O)[C@@H](NC(=O)[C@H](CO)NC(=O)[C@H](CCC(=O)O)NC(=O)[C@@H]1CCCN1C(=O)[C@H](CO)NC(=O)[C@H](CC(N)=O)NC(=O)[C@@H]1CCCN1C(=O)[C@H](CCCNC(=N)N)NC(=O)[C@H](CCCCN)NC(=O)[C@H](CCCCN)NC(=O)[C@@H]1CCCN1C(=O)[C@H](CCCCN)NC(=O)[C@H](CCCCN)NC(=O)[C@H](CC(C)C)NC(=O)[C@H](CC(C)C)NC(=O)[C@@H](NC(=O)[C@H](CCC(N)=O)NC(=O)[C@H](CCCNC(=N)N)NC(=O)[C@H](Cc1ccccc1)NC(=O)[C@H](Cc1c[nH]c2ccccc12)NC(=O)[C@H](CC(=O)O)NC(=O)[C@H](C)NC(=O)[C@H](CCSC)NC(=O)[C@H](CCCCN)NC(=O)CN)[C@@H](C)O)[C@@H](C)O)[C@@H](C)O)C(=O)N[C@H](C(=O)N[C@@H](CO)C(N)=O)C(C)C [TBX2] (H-GKMADWFRQTLLKKPKKRPNSPESTLQLRDATPGGAIVS-NH2),no significant reduction in cellular viability
substantially less fluorescent,substantially less fluorescent,CSCC[C@H](NC(=O)[C@H](CCCCN)NC(=O)CNc1ccc([N+](=O)[O-])c2nonc12)C(=O)N[C@@H](C)C(=O)N[C@@H](CC(=O)O)C(=O)N[C@@H](Cc1c[nH]c2ccccc12)C(=O)N[C@@H](Cc1ccccc1)C(=O)N[C@@H](CCCNC(=N)N)C(=O)N[C@@H](CCC(N)=O)C(=O)N[C@H](C(=O)N[C@@H](CC(C)C)C(=O)N[C@@H](CC(C)C)C(=O)N[C@@H](C)C(=O)N[C@@H](C)C(=O)N1CCC[C@H]1C(=O)N[C@@H](C)C(=O)N[C@@H](C)C(=O)N[C@@H](C)C(=O)N1CCC[C@H]1C(=O)N[C@@H](CC(N)=O)C(=O)N[C@@H](CO)C(=O)N1CCC[C@H]1C(=O)N[C@@H](CCC(=O)O)C(=O)N[C@@H](CO)C(=O)N[C@H](C(N)=O)[C@@H](C)O)[C@@H](C)O [NBD-TIRAP^Ala] (H-[N(NBD)Gly]KMADWFRQTLLAAPAAAPNSPEST-NH2),–
cell permeable properties,cell permeable properties,CSCC[C@H](NC(=O)[C@H](CCCCN)NC(=O)CNc1ccc([N+](=O)[O-])c2nonc12)C(=O)N[C@@H](C)C(=O)N[C@@H](CC(=O)O)C(=O)N[C@@H](Cc1c[nH]c2ccccc12)C(=O)N[C@@H](Cc1ccccc1)C(=O)N[C@@H](CCCNC(=N)N)C(=O)N[C@@H](CCC(N)=O)C(=O)N[C@H](C(=O)N[C@@H](CC(C)C)C(=O)N[C@@H](CC(C)C)C(=O)N[C@@H](CCCCN)C(=O)N[C@@H](CCCCN)C(=O)N1CCC[C@H]1C(=O)N[C@@H](CCCCN)C(=O)N[C@@H](CCCCN)C(=O)N[C@@H](CCCNC(=N)N)C(=O)N1CCC[C@H]1C(=O)N[C@@H](CC(N)=O)C(=O)N[C@@H](CO)C(=O)N1CCC[C@H]1C(=O)N[C@@H](CCC(=O)O)C(=O)N[C@@H](CO)C(=O)N[C@H](C(N)=O)[C@@H](C)O)[C@@H](C)O [TIRAP] (H-[N(NBD)Gly]KMADWFRQTLLKKPKKRPNSPEST-NH2),–
